# From publication PMC5513037, “Examining the influence of specificity ligands and ATP-competitive ligands on the overall effectiveness of bivalent kinase inhibitors” (Proteome Science, 2017)
# Assays:
# Assay in all cases: KAM-matrix competition in K562 lysate;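 for 0.001 uM KAM: median log10 fold change of treatment over DMSO control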;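 for 0.01 uM KAM: median log10 fold change of treatment over DMSO control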;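 for 0.1 uM KAM: median log10 fold change of treatment over DMSO control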;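 for 1 uM KAM: median log10 fold change of treatment over DMSO control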;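 for 10 uM KAM: median log10 fold change of treatment over DMSO control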
# Assay type in all cases: binding
# CAMK2D = target: T1, CAMK2D (Homo sapiens, UniProt Q13557);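 for 0.001 uM KAM: median log10 fold change of treatment over DMSO control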;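 for 0.01 uM KAM: median log10 fold change of treatment over DMSO control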;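 for 0.1 uM KAM: median log10 fold change of treatment over DMSO control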;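 for 1 uM KAM: median log10 fold change of treatment over DMSO control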;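 for 10 uM KAM: median log10 fold change of treatment over DMSO control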
# T1 construct: endogenous in cells; host or cells: K562
# Experimental: (§1) Supplement 12953_2017_125_MOESM1_ESM.zip/MS_Supp Info.xlsx, sheet "KAM" | column: 10 uM KAM; 1 uM KAM; 0.1 uM KAM; 0.01 uM KAM; 0.001 uM KAM; RB50
# CLK1 = target: T2, CLK1 (Homo sapiens, UniProt P49759)
# T2 construct: endogenous in cells; host or cells: K562
# Experimental: as §1
# MASTL = target: T3, MASTL (Homo sapiens, UniProt Q96GX5)
# T3 construct: endogenous in cells; host or cells: K562 cell lysate
# T3 sequence (Q96GX5 1-879): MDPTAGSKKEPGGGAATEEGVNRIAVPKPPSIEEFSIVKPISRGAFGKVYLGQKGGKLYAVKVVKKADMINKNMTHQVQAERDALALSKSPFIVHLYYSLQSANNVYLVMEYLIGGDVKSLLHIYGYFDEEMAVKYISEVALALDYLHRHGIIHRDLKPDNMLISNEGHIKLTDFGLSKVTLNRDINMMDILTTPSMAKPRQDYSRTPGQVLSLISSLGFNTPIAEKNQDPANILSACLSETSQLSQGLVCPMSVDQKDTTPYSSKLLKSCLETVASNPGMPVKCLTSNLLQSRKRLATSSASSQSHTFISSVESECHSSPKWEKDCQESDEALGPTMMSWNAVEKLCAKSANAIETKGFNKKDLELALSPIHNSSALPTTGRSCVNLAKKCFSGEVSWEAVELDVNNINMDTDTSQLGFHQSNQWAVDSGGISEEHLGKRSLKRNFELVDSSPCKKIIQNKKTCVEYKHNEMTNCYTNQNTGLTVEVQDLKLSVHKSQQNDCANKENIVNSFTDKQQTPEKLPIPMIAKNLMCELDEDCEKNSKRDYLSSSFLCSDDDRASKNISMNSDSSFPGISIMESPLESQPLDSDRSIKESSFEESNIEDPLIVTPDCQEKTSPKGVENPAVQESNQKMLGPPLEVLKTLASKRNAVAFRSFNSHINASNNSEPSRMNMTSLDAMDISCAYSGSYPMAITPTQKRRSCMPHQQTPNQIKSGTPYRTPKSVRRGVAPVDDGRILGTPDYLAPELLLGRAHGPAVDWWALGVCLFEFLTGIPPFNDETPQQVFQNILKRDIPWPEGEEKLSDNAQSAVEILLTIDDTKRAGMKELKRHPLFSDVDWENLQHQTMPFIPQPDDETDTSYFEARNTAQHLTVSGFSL
# Experimental: as §1
# NEK2 = target: T4, NEK2 (Homo sapiens, UniProt P51955);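 for 0.001 uM KAM: median log10 fold change of treatment over DMSO control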;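 for 0.01 uM KAM: median log10 fold change of treatment over DMSO control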;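 for 0.1 uM KAM: median log10 fold change of treatment over DMSO control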;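 for 1 uM KAM: median log10 fold change of treatment over DMSO control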;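 for 10 uM KAM: median log10 fold change of treatment over DMSO control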
# T4 construct: endogenous in cells; host or cells: K562
# T4 sequence (P51955 1-445): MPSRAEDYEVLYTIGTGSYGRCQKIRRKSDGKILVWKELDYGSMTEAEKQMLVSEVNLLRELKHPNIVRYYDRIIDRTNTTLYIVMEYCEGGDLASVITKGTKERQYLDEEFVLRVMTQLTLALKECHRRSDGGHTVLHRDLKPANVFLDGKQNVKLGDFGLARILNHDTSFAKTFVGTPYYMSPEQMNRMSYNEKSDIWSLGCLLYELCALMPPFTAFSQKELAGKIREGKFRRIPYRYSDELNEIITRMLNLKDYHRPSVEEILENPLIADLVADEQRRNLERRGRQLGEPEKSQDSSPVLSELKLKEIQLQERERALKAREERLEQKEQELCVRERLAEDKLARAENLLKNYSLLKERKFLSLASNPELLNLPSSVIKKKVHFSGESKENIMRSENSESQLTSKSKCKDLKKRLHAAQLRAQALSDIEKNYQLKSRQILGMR
# Experimental: as §1
# PRKCQ = target: T5, PRKCQ (Homo sapiens, UniProt Q04759)
# T5 construct: endogenous in cells; host or cells: K562
# Experimental: as §1
# ULK3 = target: T6, ULK3 (Homo sapiens, UniProt Q6PHR2)
# T6 construct: endogenous in cells; host or cells: K562 cell lysate
# T6 sequence (Q6PHR2 1-472): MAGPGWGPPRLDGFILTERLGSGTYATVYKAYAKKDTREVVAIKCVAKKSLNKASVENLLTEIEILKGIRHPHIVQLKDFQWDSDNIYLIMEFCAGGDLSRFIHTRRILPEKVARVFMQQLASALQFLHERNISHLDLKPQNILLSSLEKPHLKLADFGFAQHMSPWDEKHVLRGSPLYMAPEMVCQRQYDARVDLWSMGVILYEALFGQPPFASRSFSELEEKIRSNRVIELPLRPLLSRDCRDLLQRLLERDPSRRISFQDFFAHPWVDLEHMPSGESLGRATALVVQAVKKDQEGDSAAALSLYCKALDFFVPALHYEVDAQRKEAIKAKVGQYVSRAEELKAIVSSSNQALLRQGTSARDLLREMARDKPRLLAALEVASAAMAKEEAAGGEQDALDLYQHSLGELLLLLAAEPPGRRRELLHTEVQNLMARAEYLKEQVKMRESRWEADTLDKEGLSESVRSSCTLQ
# Experimental: as §1
# [1] = KAM 0.001-10 uM, read-out: RB50 (the source's name)
# [2] = read-out: RB50 (the source's name)
# T5 sequence (Q04759 whole entry): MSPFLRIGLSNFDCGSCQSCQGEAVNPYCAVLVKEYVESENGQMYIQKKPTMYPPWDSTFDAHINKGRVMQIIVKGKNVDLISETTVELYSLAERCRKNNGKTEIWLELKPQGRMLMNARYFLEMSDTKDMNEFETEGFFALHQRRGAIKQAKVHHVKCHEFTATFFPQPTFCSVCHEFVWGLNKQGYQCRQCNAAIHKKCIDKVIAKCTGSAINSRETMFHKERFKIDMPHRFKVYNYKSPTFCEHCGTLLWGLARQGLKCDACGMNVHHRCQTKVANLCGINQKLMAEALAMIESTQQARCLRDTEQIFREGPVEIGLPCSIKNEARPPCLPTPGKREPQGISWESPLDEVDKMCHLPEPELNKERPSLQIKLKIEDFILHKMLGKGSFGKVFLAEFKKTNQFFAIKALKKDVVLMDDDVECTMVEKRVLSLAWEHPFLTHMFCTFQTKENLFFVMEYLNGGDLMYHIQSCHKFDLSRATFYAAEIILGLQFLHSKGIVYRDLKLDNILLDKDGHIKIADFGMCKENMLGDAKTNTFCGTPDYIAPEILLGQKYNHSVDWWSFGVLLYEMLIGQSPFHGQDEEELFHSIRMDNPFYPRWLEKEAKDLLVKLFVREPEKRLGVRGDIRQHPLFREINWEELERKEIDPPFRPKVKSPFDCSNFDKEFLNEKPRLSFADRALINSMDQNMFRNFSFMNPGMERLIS
# T1 sequence (Q13557 whole entry): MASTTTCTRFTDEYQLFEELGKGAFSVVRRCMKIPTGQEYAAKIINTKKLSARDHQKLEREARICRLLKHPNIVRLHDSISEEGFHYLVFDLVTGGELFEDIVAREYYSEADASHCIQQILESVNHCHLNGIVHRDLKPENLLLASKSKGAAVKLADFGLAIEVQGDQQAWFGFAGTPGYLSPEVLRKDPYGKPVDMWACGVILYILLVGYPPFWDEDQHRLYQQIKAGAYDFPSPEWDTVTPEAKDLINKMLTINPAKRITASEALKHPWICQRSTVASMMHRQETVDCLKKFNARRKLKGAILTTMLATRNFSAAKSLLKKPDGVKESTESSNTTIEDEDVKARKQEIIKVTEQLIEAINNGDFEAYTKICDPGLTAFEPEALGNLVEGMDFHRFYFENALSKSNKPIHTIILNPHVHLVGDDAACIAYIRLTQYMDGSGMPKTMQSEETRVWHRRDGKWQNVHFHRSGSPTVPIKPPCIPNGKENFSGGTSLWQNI
# T2 sequence (P49759 whole entry): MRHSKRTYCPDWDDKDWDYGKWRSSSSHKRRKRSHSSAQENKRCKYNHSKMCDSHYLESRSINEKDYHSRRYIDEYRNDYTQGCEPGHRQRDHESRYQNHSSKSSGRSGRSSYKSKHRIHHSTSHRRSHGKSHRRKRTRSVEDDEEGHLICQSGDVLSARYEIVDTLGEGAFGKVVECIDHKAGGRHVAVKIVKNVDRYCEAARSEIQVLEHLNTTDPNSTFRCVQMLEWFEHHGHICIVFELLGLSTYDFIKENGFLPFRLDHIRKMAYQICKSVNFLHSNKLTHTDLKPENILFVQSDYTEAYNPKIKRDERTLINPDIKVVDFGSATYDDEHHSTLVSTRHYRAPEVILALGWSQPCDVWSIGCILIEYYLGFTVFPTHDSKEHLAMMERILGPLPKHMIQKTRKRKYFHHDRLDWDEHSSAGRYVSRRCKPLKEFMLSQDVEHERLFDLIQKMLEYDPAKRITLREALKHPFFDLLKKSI
structure (smiles),measurement,setting,value
N#CCc1ccc(Nc2nc(NCCCN)cc(Nc3cc(C4CC4)[nH]n3)n2)cc1 [KAM],IC50,CAMK2D; [1],> 10000 nM
same,0.001 uM KAM,CAMK2D; relative to 0 uM KAM = 0,-0.03504
same,0.01 uM KAM,CAMK2D; relative to 0 uM KAM = 0,0.05262
same,0.1 uM KAM,CAMK2D; relative to 0 uM KAM = 0,0.01424
same,1 uM KAM,CAMK2D; relative to 0 uM KAM = 0,-0.07545
same,10 uM KAM,CAMK2D; relative to 0 uM KAM = 0,-0.201
same,median Log10 fold change,CLK1; 0.001 uM KAM,0.02063
same,median Log10 fold change,CLK1; 0.01 uM KAM,-0.05735
same,median Log10 fold change,CLK1; 0.1 uM KAM,-0.2418
same,median Log10 fold change,CLK1; 1 uM KAM,-0.3053
same,median Log10 fold change,CLK1; 10 uM KAM,-0.4001
same,IC50,CLK1; [2],858 nM
same,median Log10 fold change,MASTL; 0.001 uM KAM,0.009734
same,median Log10 fold change,MASTL; 0.01 uM KAM,-0.004391
same,median Log10 fold change,MASTL; 0.1 uM KAM,-0.2197
same,median Log10 fold change,MASTL; 1 uM KAM,-0.3171
same,median Log10 fold change,MASTL; 10 uM KAM,-0.3645
same,IC50,MASTL; [2],948 nM
same,IC50,NEK2; [1],5870 nM
same,0.001 uM KAM,NEK2; relative to 0 uM KAM = 0,0.005896
same,0.01 uM KAM,NEK2; relative to 0 uM KAM = 0,0.02457
same,0.1 uM KAM,NEK2; relative to 0 uM KAM = 0,-0.07556
same,1 uM KAM,NEK2; relative to 0 uM KAM = 0,-0.1875
same,10 uM KAM,NEK2; relative to 0 uM KAM = 0,-0.3106
same,median Log10 fold change,PRKCQ; 0.001 uM KAM,-0.05924
same,median Log10 fold change,PRKCQ; 0.01 uM KAM,-0.02167
same,median Log10 fold change,PRKCQ; 0.1 uM KAM,-0.1204
same,median Log10 fold change,PRKCQ; 1 uM KAM,-0.1965
same,median Log10 fold change,PRKCQ; 10 uM KAM,-0.3734
same,IC50,PRKCQ; [2],3600 nM
same,median Log10 fold change,ULK3; 0.001 uM KAM,0.008102
same,median Log10 fold change,ULK3; 0.01 uM KAM,0.009404
same,median Log10 fold change,ULK3; 0.1 uM KAM,-0.1871
same,median Log10 fold change,ULK3; 1 uM KAM,-0.4491
same,median Log10 fold change,ULK3; 10 uM KAM,-0.5442
same,IC50,ULK3; [2],405 nM
